How the values were obtained:
Experiment in all cases: AUC of viability dose-response curve (% viability x log10 dose units); higher = less sensitive
Settings in all cases: 48 h
NOMO1 = tested on: NOMO1
Method in brief: (§1)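 Seeding of medium-adapted leukemia cells was at 500 or 1000 cells/well in 1536-well plates, followed by 48 h at 37°C with library compounds in DMSO at 11 threefold doses from 47 μM to 0.79 nM. CellTiter-Glo One luminescence was normalised per plate to DMSO and cell-free wells and fitted as a four-parameter log-logistic function of log10 dose. Area under the curve was integrated by trapezoidal rule, with curves exceeding full viability scaled and curves failing quality control removed.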

P12-Ichikawa = tested on: P12-Ichikawa
Method in brief: as §1

SEM cells = tested on: SEM cells
Method in brief: as §1

[1] = RPMI 5 mM glucose + 10% dialyzed FBS

## NC\1=N\C(=O)N(\C=C1)[C@@H]2O[C@H](CO)[C@@H](O)[C@H]2O
NOMO1; HPLM + 10% dialyzed FBS
  AUC of viability dose-response curve: 417
NOMO1; RPMI 5 mM glucose + 10% FBS
  AUC of viability dose-response curve: 463
NOMO1; [1]
  AUC of viability dose-response curve: 466
P12-Ichikawa; HPLM + 10% dialyzed FBS
  AUC of viability dose-response curve: 467
P12-Ichikawa; RPMI 5 mM glucose + 10% FBS
  AUC of viability dose-response curve: 471
P12-Ichikawa; [1]
  AUC of viability dose-response curve: 469
SEM cells; HPLM + 10% dialyzed FBS
  AUC of viability dose-response curve: 452
SEM cells; RPMI 5 mM glucose + 10% FBS
  AUC of viability dose-response curve: 443
SEM cells; [1]
  AUC of viability dose-response curve: 438
